{"source": "patent US11447534B2", "about": "“Peptide complex with immunodulatory and anti-inflammatory function” (NATIONAL INSTITUTE OF IMMUNOLOGY, priority 2018, dated 2022)", "key": {"[1]": {"test_system": "carrageenan induced paw edema", "assay": "Carrageenan induced paw inflammation in mice", "type": "in vivo, mouse", "details": "Ibuprofen 100 mg/kg, 5th hour", "protocol": "The effect of A-O complex was tested under in vivo conditions. Carrageenan, an inflammation inducing agent was injected into the hind foot pad of mouse to induce acute inflammation. The edema attains peak at around 3 hours post carrageenan challenge. This is a convenient model to assess the anti-inflammatory potency of test drugs to reduce or prevent the development of swelling. The protocol followed herein is as per Morris (2003) [Morris C J, 2003, Carrageenan induced paw edema in rat and mouse. In: Winyard P. G., Willoughby D. A. (eds) Inflammation Protocols. Methods in Molecular Biology, Vol 225. Humana Press. Pp 115-121].\nPreparation of carrageenan: To prepare 0.5% of carrageenan solution, 50 mg of lamda-carrageenan ([…], Sigma Chemical Co., St. Louis, Mo., USA) was slowly added onto a small beaker containing 10 ml of normal saline. The powder was allowed to swell for some time and then slightly heated (not boiled) to dissolve the carrageenan. The solution was stirred during the heating. Once dissolved, the solution was cooled and aliquoted and stored at 4 degree Celsius.\nMethod: For experiment, the mice were acclimatized in cages under standard light and temperature settings with access to food and water ad libitum. Mice were acclimatized for 1 week in respective cages to minimize stress. At the day of experiment, mice were placed in a temporary animal restraint and 50 microlitre of carrageenan solution was administered by intraplantar injection to the right hind paw of each mouse. The left paw served as control and was administered 50 microlitre of normal saline.\nTo determine the efficacy of A-O complex different concentrations of complex viz. 5, 20 and 50 microgram per 100 g body weight of mice were administered intraperitoneally 1 hour before carrageenan challenge. Ibuprofen (100 mg/kg, Sigma Chemical Co., St. Louis, Mo., USA) served as positive control for the experiment. Paw size was measured by wrapping a piece of cotton thread round the paw of each […] and recording the length of the thread, the paw circumference, by use of a metric ruler. Paws were measured immediately before and at specified time points after carrageenan injection. Inhibitory activity was calculated at 1-5 h after carrageenan injection with the following formula: % Inhibition=[(Ct−C0)control−(Ct−C0)treated]/(Ct−C0)control×100, where Ct is paw size after carrageenan injection and C0 is paw size before carrageenan injection."}, "RAW264.7 macrophages [2]": {"test_system": "RAW264.7 macrophages", "assay": "Lactate dehydrogenase (LDH) assay in macrophages", "type": "cell-based, murine", "details": "macrophages, serum starved, 1 hour", "protocol": "Effect of Abeta-Glu-OC (3 ng) mixture on macrophage integrity: To determine whether the mixture produced any toxicity lactate dehydrogenase (LDH) assay was performed. Briefly, the cells were incubated with the mixture under serum starved conditions for 1 hour followed by LDH assay. LDH was assayed using In vitro toxicology assay kit from Sigma-Aldrich, St. Louis, Mo., USA (cat. no.-TOX7) as per the manufacturer's directions. LDH assay substrate solution, LDH assay dye solution and 1×LDH assay cofactor were provided with the kit. […] To this LDH assay mixture was added and incubated at room temperature in the dark for 20-30 min. The reaction was terminated by the addition of 1/10 volume of 1N HCl. Absorption was taken 490 nm with the help of in a Tecan Microplate reader, Switzerland with Magellan™ software."}, "RAW264.7 macrophages [3]": {"test_system": "RAW264.7 macrophages", "assay": "qPCR of Cd74, Cd36 in serum starved macrophages", "type": "cell-based, murine", "details": "unstimulated RAW264.7 macrophages, with respect to basal"}, "5×FAD Tg mice [4]": {"test_system": "5×FAD Tg mice", "assay": "Morris water maze test in 5×FAD Tg mice", "type": "in vivo", "details": "300 ng per mouse subcutaneously for 2 months, vs 5×FAD Tg control", "protocol": "(§1) Two month old 5×FAD Tg mice, both male as well as female were used for the study. For the purposes of this study wild type mice is referred to as Wt and 5×FAD mice is referred to as Tg. For experimentation, the mice were divided in below groups for treatment: 1. Wild type mice given vehicle (1×PBS or phosphate buffered saline; pH 7.4). 2. 5×FAD Transgenic mice given vehicle. 3. 5×FAD Transgenic mice given undercarboxylated osteocalcin (Glu-OC) subcutaneously at dose of 300 ng per mouse of weight ranging from 25-28 g for 2 months.\nGlu-OC at a dose of 300 ng per mouse was administered subcutaneously for 2 months. To evaluate the potential of Glu-OC against development of Alzheimer's disease in 5×FAD Tg mice (a mouse model for Alzheimer's disease), the following methodologies used conducted: Morris water maze (MWM) test, immunohistochemistry, double immunostaining, ELISA and Congo Red staining. […] The training was given for the five consecutive days, with the video recording and the track of the animal was also recorded using the Any-maze animal behaviour software. Time taken to find the hidden platform is calculated and plotted."}, "5×FAD Tg mice [5]": {"test_system": "5×FAD Tg mice", "assay": "ELISA of soluble and insoluble Abeta42 in brain", "type": "in vivo, mouse", "details": "vs 5×FAD Tg control", "protocol": "as §1\n(§2) For immunohistochemistry, sacrificed animals were perfused using 4% paraformaldehyde perfusion through the heart and the brains were harvested and submerged in the same fixative for not more than 24 hours. Brains were then washed in 1×PBS (pH 7.4) and placed in 30% sucrose-PBS solution where these initially floated owing to the weight of the sucrose. Upon saturation, the brains sank to the bottom of the sucrose solution. These were then removed and washed in PBS. Brain samples were quick frozen in liquid nitrogen and then embedded in polyfreeze tissue freezing medium in a plastic mould inside a cryostat where in temperature was −20° C. The samples were then stored in −80° C. until sectioning. Sections of 15-20 micrometre was cut in a cryostat and laid over high adsorbent microslides. For unmasking antigens, slides were heated at 55° C. for 10 min followed by hydration in PBS for 5 min and then permeabilization using 0.1% Triton X-100 in PBS containing 1% BSA and 1% normal goat serum (IHC buffer). For immunostaining, brain sections were incubated in primary antibodies (fibrillar Amyloid beta antibody, catalogue number MABN638 was from Millipore-Merk; osteocalcin antibody-catalogue number sc365797 was from Santa Cruz Biotechnology; Abeta1-42 antibody D923A #14974 was from Cell Signaling Technology) diluted in IHC buffer in a humidified chamber at room temperature overnight. For double immunostaining, specific antibodies against Abets42 and osteocalcin were incubated together with brain sections. After rinsing with PBS three times for 5 min each, sections were incubated with the appropriate secondary antibody conjugated with AlexaFluor 594 or 488 (Molecular Probes, Invitrogen) for 2 h at room temperature. After rinsing with PBS, the coverslips were mounted with ProLong anti-fade mounting medium containing 4′,6-diamidino-2-phenylindole (DAPI) and imaged. Congo Red staining was done using staining kit from Abcam (ab150663) according to manufacturer's instructions. ELISA or enzyme linked immunosorbent assay was conducted on soluble and insoluble fractions prepared from brain samples. (a.) Preparation of soluble or DEA fraction or non-plaque associated Abeta. […]"}, "5×FAD Tg mice [6]": {"test_system": "5×FAD Tg mice", "assay": "Brain amyloid pathology by Congo Red staining and fibrillar Abeta42 immunostaining", "type": "in vivo, mouse", "details": "for amyloid pathology / deposits in brain (Congo Red): 300 ng per mouse subcutaneously for 2 months", "protocol": "as §1\nas §2, with “sections.” for “sections. After rinsing with PBS three times for 5 min each, sections were incubated with the appropriate secondary antibody conjugated with AlexaFluor 594 or 488 (Molecular Probes, Invitrogen) for 2 h at room temperature. After rinsing with PBS, the coverslips were mounted with ProLong anti-fade mounting medium containing 4′,6-diamidino-2-phenylindole (DAPI) and imaged. Congo Red staining was done using staining kit from Abcam (ab150663) according to manufacturer's instructions. ELISA or enzyme linked immunosorbent assay was conducted on soluble and insoluble fractions prepared from brain samples. (a.) Preparation of soluble or DEA fraction or non-plaque associated Abeta.”"}, "Abeta42": {"target": "T1, Abeta42 (Homo sapiens, UniProt P05067)", "T1 construct": "of Abeta 1-42 peptide; Molecular weight = 4514.1; purchased r-peptide", "T1 sequence (P05067 672-713)": "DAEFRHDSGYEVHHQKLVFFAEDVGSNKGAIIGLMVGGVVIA", "assay": "Abeta42 fibrillization in situ (TEM, Thioflavin T binding assay)", "type": "biochemical", "protocol": "For this study, different concentrations of Glu-OC viz. […] After keeping the samples for 5 minutes, the excess was washed off with ultrapure water and surplus sample and water were wicked away using absorbent paper. The samples were negatively stained using 1% uranyl acetate stain, dried and analyzed in a transmission electron microscope CM10 Philips operated at 80 kV. […] ThT assay measures the changes in fluorescence intensity of ThT upon binding to amyloid fibrils. […] The resulting ThT fluorescence intensities of samples were measured at an emission wavelength of 480 nm and excitation wavelength of 440 nm and 5 nm slit width using a Jobin Vyon Horiba Fluoromax-4 spectrofluorimeter. The inner filter effect was taken into account using the Equation: Fc=F×anti log[(Aex+Aem)/2] where Fc is the corrected flourescence and F is apparent fluorescence, Aex and Aem are the absorbances of the samples at excitation and emission wavelengths respectively."}}, "note": "Entries after “also recorded” stand apart in the source; their conditions may differ.", "data": [{"compound": "CC(C)Cc1ccc(C(C)C(=O)O)cc1", "note": "(stereo not drawn) [Positive control, Ibuprofen, reference compound]", "values": [{"measurement": "edema inhibition", "setting": "[1]", "value": 78, "unit": "%"}]}, {"compound": "OO", "note": "[H2O2, hydrogen peroxide]", "values": [{"measurement": "LDH in cell culture supernatants (LDH release)", "setting": "RAW264.7 macrophages [2]", "value": "induces LDH release"}, {"measurement": "intracellular LDH", "setting": "RAW264.7 macrophages [2]; vs control", "value": "rise in intracellular LDH"}]}, {"compound": "undercarboxylated osteocalcin [Glu-OC]", "values": [{"measurement": "increase in mRNA level of Cd36", "setting": "RAW264.7 macrophages [3]", "value": "do not elicit induction"}, {"measurement": "increase in mRNA level of Cd74 (MHC-II)", "setting": "RAW264.7 macrophages [3]", "value": "do not elicit induction"}, {"measurement": "escape latency (Morris water maze)", "setting": "5×FAD Tg mice [4]", "value": "lower escape latency; also recorded: reduced escape latency"}, {"measurement": "insoluble (plaque associated) Abeta42 level in brain", "setting": "5×FAD Tg mice [5]", "value": "reduced"}, {"measurement": "soluble Abeta42 level in brain", "setting": "5×FAD Tg mice [5]", "value": "increased"}, {"measurement": "insoluble (plaque associated) Abeta42 level in brain", "setting": "5×FAD Tg mice [5]; listed as Gla-OC", "value": "significantly reduced"}, {"measurement": "soluble Abeta42 level in brain", "setting": "5×FAD Tg mice [5]; listed as Gla-OC", "value": "significantly increased"}, {"measurement": "amyloid pathology / deposits in brain (Congo Red)", "setting": "5×FAD Tg mice [6]", "value": "significant reduction in amyloid pathology"}, {"measurement": "amyloid pathology / deposits in brain (Congo Red)", "setting": "5×FAD Tg mice [6]; listed as Gla-OC", "value": "lesser amyloid deposits"}, {"measurement": "fibrillar Abeta42 immunostaining of brain", "setting": "5×FAD Tg mice [6]; fibrillar specific Abeta42 antibody", "value": "fewer yet larger Abeta42+ fibrillar amyloid deposits; also recorded: positive for intense fibrillar Abeta42 structures"}, {"measurement": "Abeta42 fibrillization (TEM)", "setting": "Abeta42; Abeta42 100 micromolar with 3 ng of osteocalcin", "value": "Mature fibrils"}, {"measurement": "Abeta42 fibrillization (TEM)", "setting": "Abeta42; Abeta42 100 micromolar, Glu-OC 3-10 ng or none, 1×PBS pH 7.4, 37° C., 8 hours", "value": "demonstrated fibrillization"}]}]}
